Experimental data published in US20250020635A1, “ASSAY METHODS AND USES THEREOF FOR SCREENING ALZHEIMER'S DISEASE TREATMENT COMPOUNDS” (priority 2023, published 2025).
Read-outs that look alike come from different tables or passages of the source.

Tests used:
[1] = Protein binding in mouse plasma; type: in vitro ADME
Method: (§1) Physicochemical and ADME properties were determined using the following assays: microsomal stability intrinsic clearance (Clint) in mouse liver microsomal solution, MDCK permeability (Papp), protein binding (fu) in mouse plasma, and kinetic solubility in pH 7.4 phosphate buffer (Table 7).

BV2 cells = assay: Microglial phagocytosis/cell health high-content assay, BV2 cells; type: cell-based; conditions: 60 μM, 48 hrs, compared to control
Method: (§2) The assay introduced here is a simplified cellular imaging assay without any fixation and washing steps, while producing multiparameter measurements with high capacity using a 384-well plate format. The assay procedures include plating cells on day 1, incubating cell plates overnight before treating cells on day 2, adding pHrodo™-myelin/membrane debris to cell plates on day 3, and 20 hr later, staining cell nuclei with Hoechst-33342 for 30 min before performing high-content imaging on day 4. Three selected parameters are measured from cells: 1) mean total fluorescence intensity per cell of pHrodo™-myelin/membrane debris in phagocytosis vesicles to quantify phagocytosis; 2) cell counts per well to quantify treatment effects on proliferation and cell death; and 3) average nuclear intensity to quantify treatment-induced nuclear changes such as in apoptosis. The assay has been used on HMC3 cells (an immortalized human microglial cell line), BV2 cells (an immortalized mouse microglial cell line), and primary microglia isolated from mouse brains. For initial assay attempts, we recommend using HMC3 cells available from the ATCC.
(§3) All collected raw data are normalized to the untreated control with following formula: % of control=100×(X−Min)/(Max−Min). Factors in the formula are: X is raw data from a treated well, Max is an average measurement from pHrodo™-myelin seeded but untreated wells, and Min is an average measurement from no pHrodo™-myelin untreated wells. Normalized data are used for curve fitting that is done with the variable slope (four parameters) using the Prism software.
(§4) To ensure that the measurements reflect the steady state of compound treatment effects and cell health, the assay was set with a total compound treatment time of 48 hr, including pHrodo™-myelin/membrane debris seeding performed 20-24 hr after compound addition. […] Among many available quantitative measurements from the image analysis, we selected three parameters for the assay:
(§5) 1) The mean total intensity of phagocytosis vesicles/cell—to measure phagocytosis. There are multiple parameters generated from the image analysis, including phagocytosis vesicle area, number, and various fluorescence intensity measurements. Comparing these parameters, the total fluorescence intensity of vesicles/cell is the most sensitive one and was chosen for quantifying phagocytosis.
(§6) 2) The total cell counts—to measure overall cell viability, which is affected by proliferation and cell death. We chose to take 4 images/well (with the 10× objective lens) that cover about 50% of the total area of a well in a 384-well plate to represent cell count of the well.
(§7) 3) The average nuclear intensity—to measure drug-induced apoptosis, with high signal indicating nuclear condescension (a sign of early apoptosis) and low signal indicating DNA degradation (a sign of later apoptosis, when activated caspases digest DNA).
(§8) A phenotypic high-content imaging assay with simultaneous measurements of phagocytosis, cell number, and nuclear intensity was used to assess both cellular pharmacology and cell health. Model cell lines BV2 (immortalized mouse microglia, a gift from Dr. Michelle Block's laboratory at IUSM) and HMC3 (immortalized human microglia, obtained from ATCC, CRL-3304) were used to provide adequate throughput. Cells were cultured in DMEM GlutaMax media (ThermoFisher) containing 10% FBS and Pen-Strep in a 37° C. 5% CO2 incubator, plated in Corning Falcon 384 well Optilux Black and clear bottom plates: 400 cells/45 μl/well (BV2 cells), 600 cells/45 μl/well (HMC3 cells) and 2000 cell/45 μl/well (primary cells), and treated with 10× serially diluted compounds (60 μM-3 nM) for 48 hrs at 37° C. […]

MDCK = MDCK permeability; type: in vitro ADME; conditions: estimate of intestinal absorption
Method: as §1

PLCγ2-HiBit = target: T1, PLCγ2-HiBit (Homo sapiens, UniProt P16885); assay: Cellular thermal shift assay (SplitLuc CETSA), PLCγ2-HiBit in HMC3 cells; type: cell-based; conditions: for PLCγ2-HiBit %, percent luminescence at highest dose compared to control (DMSO): 100 μM; for PLCy2-HiBit % @100: Table 1
T1 construct: expressed in transfected cells; host or cells: HMC3 cells
T1 sequence (P16885 1-1265): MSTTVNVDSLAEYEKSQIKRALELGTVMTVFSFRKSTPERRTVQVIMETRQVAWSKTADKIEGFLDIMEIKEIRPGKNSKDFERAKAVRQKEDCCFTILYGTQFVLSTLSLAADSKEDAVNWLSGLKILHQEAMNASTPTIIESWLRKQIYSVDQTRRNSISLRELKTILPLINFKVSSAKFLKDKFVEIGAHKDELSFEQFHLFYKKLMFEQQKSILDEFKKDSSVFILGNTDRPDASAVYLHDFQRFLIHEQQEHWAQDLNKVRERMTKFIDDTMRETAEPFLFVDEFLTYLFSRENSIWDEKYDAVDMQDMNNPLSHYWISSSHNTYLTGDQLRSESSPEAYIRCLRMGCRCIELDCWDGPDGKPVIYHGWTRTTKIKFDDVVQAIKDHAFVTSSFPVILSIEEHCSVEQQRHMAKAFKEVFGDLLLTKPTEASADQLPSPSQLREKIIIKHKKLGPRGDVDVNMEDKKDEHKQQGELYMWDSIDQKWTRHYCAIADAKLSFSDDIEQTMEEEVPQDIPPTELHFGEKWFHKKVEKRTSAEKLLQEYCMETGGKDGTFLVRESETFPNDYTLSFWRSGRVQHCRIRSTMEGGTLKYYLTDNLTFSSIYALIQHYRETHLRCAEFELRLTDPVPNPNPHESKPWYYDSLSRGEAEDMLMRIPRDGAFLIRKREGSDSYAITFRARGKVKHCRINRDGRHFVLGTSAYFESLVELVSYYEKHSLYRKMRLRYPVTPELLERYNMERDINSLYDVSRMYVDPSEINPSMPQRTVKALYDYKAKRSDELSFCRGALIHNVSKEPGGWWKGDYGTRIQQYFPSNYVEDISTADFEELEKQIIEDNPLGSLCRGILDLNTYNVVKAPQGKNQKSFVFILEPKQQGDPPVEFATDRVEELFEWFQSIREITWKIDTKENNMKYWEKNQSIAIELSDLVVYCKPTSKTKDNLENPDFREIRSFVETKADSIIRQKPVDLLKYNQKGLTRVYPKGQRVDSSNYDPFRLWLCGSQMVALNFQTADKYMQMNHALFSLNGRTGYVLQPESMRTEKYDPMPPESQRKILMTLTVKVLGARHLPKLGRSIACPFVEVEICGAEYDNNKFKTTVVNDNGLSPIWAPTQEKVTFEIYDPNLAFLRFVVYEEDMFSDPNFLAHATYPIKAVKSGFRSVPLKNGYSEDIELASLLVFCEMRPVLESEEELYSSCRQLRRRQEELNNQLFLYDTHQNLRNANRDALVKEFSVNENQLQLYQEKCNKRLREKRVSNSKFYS
Description: These compounds have been evaluated using a wide variety of assay classes namely target engagement utilizing cellular thermal shift assay (CETSA),^34 affinity selection mass spectrometry (ASMS),^35 biochemical activity employing the fluorogenic probe XY-69,^36 and cellular activity testing for phagocytosis. Cellular Thermal Shift Assays (CETSA) assess cellular target engagement by quantifying changes in protein thermal stability upon ligand binding to endogenous proteins in intact cells.^34 For SAR studies, a split Nano Luciferase (SplitLuc CETSA) version of the assay was utilized to provide sufficient throughput.^37,38 HMC3 cells were stably transfected with PLCγ2-HiBit to enable protein expression in a physiologically relevant cellular context. The thermal stability of this HiBit-labeled protein in intact cells was measured in the following two formats. In the initial screen, using 96-well plates, cells were treated with FBS analogs at a single concentration (100 μM) at 37° C. for 60 min and then exposed to a 3-minute isothermal heating step at 45.9° C. (experimentally determined Tm of PLCγ2-HiBit). Luminescence detection was then conducted with the Nano-Glo HiBit Lytic detection kit (Promega, Cat. N3040).^38 Compound treatment was performed in triplicate, and raw signals were normalized to the mean of the controls (in the same plate) as % of control. When the difference in compound-treated cells >control mean+3SD, the compound was considered positive and selected for further testing with dose-response CETSA. In the dose response CETSA, cells were treated with decreasing concentrations from 100 μM with 1:3 serial dilutions to generate an 8-point curve. An AC50 was calculated with the % of control data using a four-parameter logistic curve regression model, and the percent luminescence remaining at the highest concentration is also reported for the compounds when the difference from the DMSO control is greater than 3× the standard deviation (SD). Otherwise, an AC50 was not calculated.

HMC3 cells [2] = assay: Microglial phagocytosis/cell health high-content assay, HMC3 cells; type: cell-based; conditions: 60 μM, 48 hrs, compared to control
Method: as §2, §3, §4, §5, §6, §7, §8

[3] = Kinetic solubility in pH 7.4 phosphate buffer; type: physicochemical
Method: as §1

[4] = Microsomal stability intrinsic clearance; type: in vitro ADME; conditions: mouse liver microsomes
Method: as §1

HiBit only = assay: Cellular thermal shift assay (CETSA), HiBit only control; type: cell-based, human
HMC3 cells [5] = assay: Microglial phagocytosis/cell health high-content assay, HMC3 cells; type: cell-based; conditions: 24-hr treatment
His-PLCγ2 protein = target: T2, His-PLCγ2 protein (Homo sapiens, UniProt P16885); assay: Affinity selection mass spectrometry (ASMS); type: binding; conditions: dose range 100-0.05 μM, PLCγ2 400 nM
T2 sequence (P16885 1-1265): T1 sequence (P16885 1-1265)
Method: Using a dose range of 100-0.05 μM in 384 well low-volume polypropylene microtiter plates, a solution of PLCγ2 (final concentration 400 nM) was transferred to biochip arrays functionalized with a Tris-Ni-NTA-presenting self-assembled monolayer to immobilize the His-tagged protein. The arrays were incubated for 90 min in a humidified chamber to prevent evaporation and allow for specific immobilization of the His-PLCγ2 protein, along with any bound small molecules. The arrays were purified by a rapid <3 second gentle wash step with deionized ultra-filtered water and dried with compressed air. ASMS was performed using the reflector positive mode on an Aβ Sciex TOF-TOF 5800 System (Aβ Sciex, Framingham, MA).

Row | target engagement, signal against background (His-PLCγ2 protein) | Structure (SMILES) | fu, fraction unbound [1] | Ave. % Cell Count @ 60 uM BV2 cells (BV2 cells) | Ave. % Phagocytosis @ 60 uM BV2 cells (BV2 cells) | Papp, MDCK permeability (MDCK) | PLCγ2-HiBit %, percent luminescence at highest dose compared to control (DMSO) (PLCγ2-HiBit) | PLCy2-HiBit % @100 (PLCγ2-HiBit) | Ave. % Cell Count @ 60 uM HMC3 cells (HMC3 cells [2]) | Ave. % Phagocytosis @ 60 uM HMC3 cells (HMC3 cells [2]) | Kinetic solubility [3] | Clint, intrinsic clearance [4] | HiBit only %, percent luminescence at highest dose with HiBit only compared to control (DMSO) (HiBit only; 100 μM) | HiBit only % @100 μM (HiBit only; Table 1, @100 μM) | IC50 (HMC3 cells [5]; read-out: cell count (inhibition of cell proliferation) IC50) | EC50 (HMC3 cells [5]; read-out: increase of nuclear intensity EC50) | IC50 (HMC3 cells [5]; read-out: inhibition of phagocytosis IC50)
1 |  | Cc1cc(C)c(S(=O)(=O)Nc2cccc(C#N)c2)c(C)c1 [Compound 3] | 0.0003 | 85% | 113% | 69.8 ×10−^6 cm/s | 96% | 96% | 79% | 111% | 81 to 100 µM |  |  |  |  |  | 
2 |  | O=S(=O)(Nc1cccc(C(F)(F)F)c1)c1ccccc1 [Compound 4] |  | 95% | 106% | 79.7 ×10−^6 cm/s | 65% | 65% | 84% | 89% | >100 µM | 607.66 µL/min/mg | 82% | 82% |  |  | 
3 |  | C=C1[C@@H](C)[C@H]2[C@H](Cc3ccccc3)NC(=O)[C@]23[C@H](OC(C)=O)/C=C/[C@@](C)(O)C(=O)[C@@H](C)C/C=C/[C@H]3[C@@H]1O [Cytochalasin D] |  |  |  |  |  |  |  |  |  |  |  |  | 367 nM | 488 nM | 138 nM
4 | clear separation from background signal | Nc1ncnc2c1ncn2[C@@H]1O[C@H](COP(=O)(O)OP(=O)(O)OP(=O)(O)O)[C@@H](O)[C@H]1O [ATP] |  |  |  |  |  |  |  |  |  |  |  |  |  |  | 
